The values that follow come from paper PMC9968064, “First Synthesis of DBU-Conjugated Cationic Carbohydrate Derivatives and Investigation of Their Antibacterial and Antifungal Activity” (International Journal of Molecular Sciences, 2023).

“Also recorded” adds a separate entry of the source. Where two headings read alike, the source gives them in different places. Where only a bound is given, the exact number is not on record here.

In series [1] the test system is Candida albicans (ATCC 10231). Put plainly: MIC determination (antifungal susceptibility test). Type of series: cell-based. Particulars: for MIC: Candida albicans. As to the method: (§1) The antimicrobial activity of twenty-two cationic hexopyranoside-amidinium salts (3, 10, 11, 12, 21, 22, 23, 24, 29, 30, 32, 37, 38, 45, 46, 47, 48, 49, 50, 51, 52 and 53) were compared in susceptibility tests (Table 2). The effectiveness of all compounds was tested on Staphylococcus aureus ssp. aureus (ATCC 6538), Escherichia coli (ATCC 8739) and Candida albicans (ATCC 10231). We tested the antimicrobial activity of the compounds at the concentration range of 6.25–100 µg/mL.
(§2) The detection of the antibacterial and antifungal effects of the tested compounds and the determination of the minimum inhibitory concentration (MIC) were carried out based on the method of CLSI [48] and Hungarian Pharmacopeia (chapters VIII. 2.6.12–13.).
(§3) For the antimicrobial studies, we used three human pathogens as test organisms: Candida albicans (ATCC 10231), Staphylococcus aureus subspecies aureus (ATCC 6538) and Escherichia coli (ATCC 8739).
(§4) Staphylococcus aureus subspecies aureus and Escherichia coli were cultured on tryptic soya agar (TSA) for 18–24 h at 37 °C. Candida albicans was cultured on Sabouraud dextrose agar (SDA) for 18–24 h at 37 °C. To obtain cells for suspension, we made cell suspensions from Staph. aureus, E. coli and C. albicans with the cotton swab suspension technique. The dilution of suspension was then made with 0.85% NaCl solution, absorbance being set to A600nm = 0.06. a volume of 10 μL of these suspensions contained ~4.5–6.0 × 10^4 colony forming unit (CFU) (bacteria) and ~1.5–2.0 × 10^3 CFU for yeast.
(§5) Tested agents were diluted with DMSO; the concentration of stock solutions was 4 mg/mL; and to ensure sterility, the closed sample containers were incubated at 35 °C for 1 h. The highest final concentration was 100 μg/mL.
Testing was performed in 24-well plates, and cell suspensions were prepared with 0.85% NaCl solution. Stock solutions were made from the agents with DMSO (100%). […] […] After inoculation, plates were incubated at 35 °C, and results were then read visually after 18–24 h. If microbial growth could not be detected, results were read visually after 72 h. If there was no growth after 72 h, incubation was continued till the fifth day of the experiment and the results were read visually and with plate reader at 600 nm after 120 h.
(§6) The MIC value of a compound was defined as the minimal concentration that inhibits the growth of bacteria and yeasts comparing to the control. The results of the antibacterial and antifungal tests were read visually after 24, 48, 72 and 120 h. The microbial growth was measured by plate reader at 600 nm after 120 h.

Series [2] relates to Staphylococcus aureus ssp. aureus (ATCC 6538). As to the kind of experiment: MIC determination (antibacterial susceptibility test, CLSI / Hungarian Pharmacopeia). Type of series: cell-based. Particulars: for MIC: Staphylococcus aureus, ATCC6538, tested range 6.25–100 µg/mL. As to the method: as §1, §2, §3, §4, §5
(§7) Testing was performed in 24-well plates, and cell suspensions were prepared with 0.85% NaCl solution. Stock solutions were made from the agents with DMSO (100%). Final concentrations of used compounds were 6.25–100 µg/mL. […] After inoculation, plates were incubated at 35 °C, and results were then read visually after 18–24 h. If microbial growth could not be detected, results were read visually after 72 h. If there was no growth after 72 h, incubation was continued till the fifth day of the experiment and the results were read visually and with plate reader at 600 nm after 120 h.
as §6

Series [3] concerns Escherichia coli (ATCC 8739). Described as above. Type of series: cell-based. Particulars: Escherichia coli, ATCC8739, tested range 6.25–100 µg/mL. The method, then: as §1, §2, §3, §4, §5, §7, §6
The test system of series [4] is HaCaT (human keratinocyte) cell line. Put plainly: MTT viability test on HaCaT cells. The format is cell-based. Particulars: 24 h; for IC50: Homo sapiens, HaCaT, 50–3.125 µg/mL; for effect on HaCaT cell viability at antibacterially and antifungally active concentrations: ≤6.25 µg/mL. As to the method:
The cytotoxic effect of six selected compounds (3, 10, 12, 21, 22 and 29) with promising antimicrobial activity was studied on HaCaT (human keratinocyte) cell lines. Using the MTT-test, we determined the viability of the cells (Figure 3), and the half maximal inhibitory concentration (IC50) values of the compounds are summarized in Table 4. The duration of tests was 24 h; the examined concentrations were: 50–25–12.5–6.25–3.125 µg/mL. The IC50 value of a compound was defined as the concentration that inhibits cell growth by 50% relative to the control. […], the medium containing the inhibitor was removed, and 10 μL MTT solution was added to the cells. The plates were then incubated for two hours at 37 °C. The medium from the wells was then carefully aspirated, and MTT formazan dissolved with 100 μL of DMSO aided by gentle agitation on a shaker. After 10 min at room temperature, the absorbances were read at 570 nm by an automatic plate reader. The percentage of viability reflecting the respiratory potential of the cell population in each well was expressed as (absorbance of treated cells/absorbance of control cells) × 100. IC50 values of tested agents were determined by Graphpad (Prism) semi-log line fitting (graphpad.com (8)). The MTT test was performed after treatment and removal of inhibitors followed by the addition of 10 μL of MTT solution to the cells. We tested the toxic effect of compounds 3, 10, 12, 21, 22 and 29 on HaCaT cell line. HaCaT is a spontaneously transformed, aneuploid keratinocyte, an adherent cell type derived from the epithelium of Human […] adult skin. The cell line was immortalized in 1986 under low calcium and high-temperature conditions. Cells were cultured in DMEM medium (iBiotech, Szigetszentmiklós, Hungary) containing 10% fetal bovine serum (FBS, iBiotech, Szigetszentmiklós, Hungary) and 1% antibiotic-antimycotic mix (Penicillin–Streptomycin–Neomycin).
Background: Tetrazolium assays rely on reduction of a dye to a coloured formazan, in cell work by metabolically active cells.

For series [5], the system named is Staphylococcus aureus ssp. aureus (ATCC 6538). Also noted: method as in PMID 22866984. The conditions noted are these: reference antibiotics; cited from earlier work.
In series [6] the test system is Escherichia coli (ATCC 8739). Also noted: method as in PMID 24144185. The conditions noted are these: reference antibiotics; cited from earlier work.
The test system of series [7] is Lactobacillus plantarum subsp. plantarum (ATCC 14917). Put plainly: Membrane permeabilization by SYTOX green staining. Type of series: cell-based. Particulars: 6.25 µg/mL; for membrane permeabilization (cellular fluorescence of SYTOX green): Figure 5. As to the method:
In membrane permeabilization experiments, the Gram-positive Lactobacillus plantarum was used to test the effect of compounds 10 and 22 at 6.25 µg/mL for 48 h. Bacterial cells were stained with SYTOX green (SG) fluorescent dye, which is impermeable on intact membranes but easily penetrates through compromised membranes.
Lactobacillus plantarum subsp. plantarum (ATCC 14917) was purchased from ATCC (Manassas, VA, USA). The membrane permeabilization ability of compounds 10 and 22 was tested on L. plantarum and determined in the brain heart infusion medium (BHI) (CliniChem Ltd., Budapest, Hungary). Bacterial cells were treated with the test compounds at the final concentration of 6.25 µg/mL and samples were taken at 1, 4, 8, 24 and 48 h. Samples were stained with SYTOX green fluorescent dye (ThermoFischer Scientific, Budapest, Hungary) at 1 µM final concentration for 30 min at 37 °C, and flow cytometric measurements were carried out with a Guava Easy Cyte 6HT-2L flow cytometer (Merck Ltd., Darmstadt, Germany). Green (525/30 nm) and red (695/50 nm) fluorescence channels were used to gate out the cells on a green versus red dot plot. The ratio of the SYTOX green (SG) positive bacterial cells was evaluated.

A further series has as its system rat red blood cells. As to the kind of experiment: Hemolytic activity on rat red blood cells. The format is cell-based, Sprague-Dawley rat. Particulars: 15 min, 37 °C; for hemolysis compared to negative control PBS: 6.25 µg/mL; for hemolysis (haemoglobin release): 50 and 100 µg/mL, comparable to water positive control. The method, then: The hemolytic activity of compounds 10 and 22 was determined on freshly isolated rat red blood cells (Figure 4).
Blood was collected from a Sprague-Dawley rat into an EDTA tube. Erythrocytes were separated from blood by centrifugation at 1800 rpm for 8 min, washed 3 times with phosphate buffered saline (PBS), and resuspended in PBS. Aliquots of the cell suspension with the respective red blood cell number of 7 × 10^7 were added to PBS containing increasing concentrations of the test compounds or the vehicle DMSO. After gently mixing, each mixture was incubated at 37 °C for 15 min. The released hemoglobin into the supernatant was separated by a rapid centrifugation at 5000 rpm for 5 min. Finally, the absorbance of the released hemoglobin was measured at 540 nm using a Multiskan Go (ThermoFisher, Waltham, MA, USA) microplate reader. The absorbance values were compared to the absorbance of the sample kept in purified water during the incubation as positive control and given as percent hemolysis.

Setting [8] is: ATCC10231, 10× diluted, tested range 0.625–10.0 µg/mL, read-out: MIC Candida albicans (ATCC 10231), lower concentrations.
[9] abbreviates: ATCC10231, tested range 6.25–100 µg/mL, read-out: MIC Candida albicans (ATCC 10231).

On to `CCS[C@H]1O[C@H](C[N+]2=C3CCCCCN3CCC2)[C@@H](OCc2ccc3ccccc3c2)[C@@H](OCc2ccccc2)[C@H]1OCc1ccccc1` [Compound 29], for which the MIC in series [1] (setting [8]) is 2.5 µg/mL; in series [1] (setting [9]), less than 6.25 µg/mL; in series [2], 6.25 to 50 µg/mL; in series [3] it was more than 100 µg/mL. Also, the “MIC Staphylococcus aureus (ATCC 6538)” value in series [2] (tested range 6.25–100 µg/mL) is recorded as less than 12.5 µg/mL. In addition, the “cytotoxic effect on HaCaT cells (in words)” value (“cytotoxic effect” for short) in series [4] was “only slight cytotoxicity; also recorded: greatly reduced toxicity”. For the same compound, 11.9 ± 0.25 µg/mL corresponded to half-maximal inhibition in series [4] (IC50).

For the compound `CNC(C)C1CCC(N)C(OC2C(N)CC(N)C(OC3OCC(C)(O)C(NC)C3O)C2O)O1` (stereo not shown) [Gentamicin], the “MIC Staphylococcus aureus (ATCC 6538)” value in series [5] was 8 [43, 44, 45] µg/mL. Further, the “MIC Escherichia coli (ATCC 8739)” value in series [6] is 8 [42] µg/mL.

For `CCS[C@H]1O[C@H](C[N+]2=C3CCCCCN3CCC2)[C@@H](OCc2ccc3ccccc3c2)[C@H](OCc2ccccc2)[C@H]1OCc1ccccc1` [Compound 10], the “membrane permeabilization (cellular fluorescence of SYTOX green)” value in series [7] is “increased membrane permeabilization”. In addition, the “ratio of SYTOX green (SG) positive cells” value in series [7] (after 1 h of incubation) is “increased the ratio of SG-positive cells”; in series [7] (after 4 h of incubation), “drastically increased”. Moreover, the “MIC Candida albicans (ATCC 10231), lower concentrations” value in series [1] (10× diluted, tested range 0.625–10.0 µg/mL) came to 5.0 µg/mL. Besides, the MIC in series [1] (setting [8]) was 5 µg/mL; in series [1] (setting [9]), less than 6.25 µg/mL; in series [2], less than 6.25 µg/mL; in series [3], not below 100 µg/mL. Moreover, the “hemolysis compared to negative control PBS” value in the series with rat red blood cells was “did not cause significant hemolysis”. Besides, in the series on rat red blood cells, the “hemolysis (haemoglobin release)” value was “significantly increased the hemolysis; also recorded: significant haemoglobin release”. In series [4], the “cytotoxic effect” value is given as “only slight cytotoxicity; also recorded: greatly reduced toxicity”. The half-inhibitory concentration (IC50) (commonly the concentration that inhibits the measured activity by half) in series [4] came out at 15.3 ± 0.78 µg/mL. In addition, in series [4], the “effect on HaCaT cell viability at antibacterially and antifungally active concentrations” value is given as “hardly affected the cell viability”.

As to `c1ccc(CO[C@H]2[C@@H](OCc3ccc4ccccc4c3)[C@H](OCc3ccccc3)[C@@H](C[N+]3=C4CCCCCN4CCC3)O[C@@H]2Sc2ccccc2)cc1` [Compound 21], the figures for the MIC in series [2] and in series [3] were 6.25 to 50 µg/mL and more than 100 µg/mL, respectively. The “cytotoxic effect” value in series [4] was “significant toxic effect; also recorded: cytotoxic”. The same compound gave a 50% inhibitory concentration (IC50) in series [4] of 1.02 ± 0.06 µg/mL.

As for `c1ccc(CO[C@@H]2[C@H](OCc3ccccc3)[C@@H](Sc3ccccc3)O[C@H](C[N+]3=C4CCCCCN4CCC3)[C@H]2OCc2ccc3ccccc3c2)cc1` [Compound 22], the “membrane permeabilization (cellular fluorescence of SYTOX green)” value in series [7] is “increased membrane permeabilization”. The “ratio of SYTOX green (SG) positive cells” value is “increased the ratio of SG-positive cells” in series [7] (after 1 h of incubation) and “drastically increased” in series [7] (after 4 h of incubation). Further, the MIC in series [1] (setting [8]) is 2.5 µg/mL; in series [1] (setting [9]), less than 6.25 µg/mL; in series [2], less than 6.25 µg/mL; in series [3] it was not below 100 µg/mL. In the series with rat red blood cells, the “hemolysis compared to negative control PBS” value was “did not cause significant hemolysis”. The “hemolysis (haemoglobin release)” value in the series with rat red blood cells is on record as “significantly increased the hemolysis; also recorded: significant haemoglobin release”. Besides, the “cytotoxic effect” value in series [4] is “only slight cytotoxicity; also recorded: greatly reduced toxicity”. Besides, 10.3 ± 0.41 µg/mL corresponded to half-maximal inhibition in series [4] (IC50). The “effect on HaCaT cell viability at antibacterially and antifungally active concentrations” value in series [4] was “hardly affected the cell viability”.

The compound `CO[C@H]1O[C@H](C[N+]2=C3CCCCCN3CCC2)[C@@H](OCc2ccccc2)[C@H](OC(=O)c2ccccc2)[C@H]1OC(=O)c1ccccc1` [Compound 3, 8-N-[methyl 6-deoxy-6-yl-2,3-di-O-benzoyl-4-O-benzyl-α-D-glucopyranoside]-1,8-diazabicyclo(5.4.0)undec-7-ene-iodide] came in with an MIC in series [2] of 6.25 to 50 µg/mL. Besides, the MIC in series [3] is more than 100 µg/mL. Further, in series [4], the “cytotoxic effect” value was “strongest cytotoxic effect” and the IC50 was 0.13 ± 0.06 µg/mL.

Take `CCS[C@H]1O[C@H](C[N+]2=C3CCCCCN3CCC2)[C@@H](OCc2ccc3ccccc3c2)[C@H](OC(=O)c2ccccc2)[C@H]1OCc1ccccc1` [Compound 12]: the MIC in series [2] was less than 6.25 µg/mL. The MIC in series [3] is more than 100 µg/mL. Further, in series [4], the “cytotoxic effect” value is “significant toxic effect; also recorded: cytotoxic” and the midpoint of inhibition, the IC50, lay at 4.26 ± 0.16 µg/mL.
